How the values were obtained:
cocklebur = assay: Test B pre/postemergence cocklebur; assay type: in vivo, Xanthium strumarium
Outline: (§1)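 Herbicidal effect was estimated by eye on a ten-point control scale after plants spent twelve to sixteen days in a greenhouse following soil or foliar treatment. Foliar sprays targeted plants at one to four leaves; all doses were formulated in a non-phytotoxic solvent with surfactant.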

corn = assay: Test B pre/postemergence corn; assay type: in vivo, Zea mays
Outline: as §1

crabgrass = assay: Test B pre/postemergence crabgrass; assay type: in vivo, Digitaria sanguinalis
Outline: as §1

giant foxtail = assay: Test B pre/postemergence giant foxtail; assay type: in vivo, Setaria faberii
Outline: as §1

morningglory = assay: Test B pre/postemergence morningglory; assay type: in vivo, Ipomoea hederacea
Outline: as §1

pigweed = assay: Test B pre/postemergence pigweed; assay type: in vivo, Amaranthus retroflexus
Outline: as §1

rape = assay: Test B pre/postemergence rape; assay type: in vivo, Brassica napus
Outline: as §1

soybean = assay: Test B pre/postemergence soybean; assay type: in vivo, Glycine max
Outline: as §1

sugar beet = assay: Test B pre/postemergence sugar beet; assay type: in vivo, Beta vulgaris
Outline: as §1

velvetleaf = assay: Test B pre/postemergence velvetleaf; assay type: in vivo, Abutilon theophrasti
Outline: as §1

wheat = assay: Test B pre/postemergence wheat; assay type: in vivo, Triticum aestivum
Outline: as §1

wild oat = assay: Test B pre/postemergence wild oat; assay type: in vivo, Avena fatua
Outline: as §1

purple nutsedge = assay: Test B pre/postemergence purple nutsedge; assay type: in vivo, Cyperus rotundus
Outline: as §1

rice = assay: Test B flood test rice; assay type: in vivo, Oryza sativa
Outline: (§2)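 Each value is a visual injury score relative to controls, with 10 meaning complete control and 0 no effect. Evaluation took place twelve to sixteen days after the 2-leaf-stage plants were treated and kept in the greenhouse.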

duck salad = assay: Test B flood test duck salad; assay type: in vivo, Heteranthera limosa
Outline: as §2

bamyardgrass = assay: Test B flood test barnyardgrass; assay type: in vivo, Echinochloa crus-galli
Outline: as §2

[1] = Postemergence, Rate 62 g/ha, scale 0 to 10, 0 is no effect, 10 is complete control
[2] = Postemergence, Rate 125 g/ha, scale of 0 to 10 where 0 is no effect and 10 is complete control
[3] = Postemergence, Rate 250 g/ha, scale 0 to 10, 0 no effect, 10 complete control
[4] = Preemergence, Rate 62 g/ha, scale 0 to 10 (0 no effect, 10 complete control)
[5] = Preemergence, Rate 125 g/ha, scale 0 to 10 (0 no effect, 10 complete control)
[6] = Preemergence, Rate 250 g/ha, scale of 0 to 10 where 0 is no effect and 10 is complete control
[7] = Preemergence, Rate 500 g/ha, scale 0 (no effect) to 10 (complete control)
[8] = Rate 500 g/ha, Postemergence, scale 0 to 10, 0 no effect, 10 complete control
[9] = Rate 250 g/ha, Postemergence, scale 0 to 10, 0 is no effect, 10 is complete control
[10] = Postemergence (flood test species), Rate 125 g/ha, scale of 0 to 10 where 0 is no effect and 10 is complete control
[11] = Rate 500 g/ha, listed under Postemergence (flood test species), scale 0 to 10, 0 no effect, 10 complete control
[12] = flood test, listed under Postemergence, Rate 250 g/ha, scale 0 to 10, 0 no effect, 10 complete control

CCN(CC)C(=O)n1oc(=O)n(-c2cccc3c2CCCC3)c1=O [Compound 89]
Cocklebur plant response rating (cocklebur; [1]): 1
Cocklebur plant response rating (cocklebur; [2]): 1
Cocklebur plant response rating (cocklebur; [3]): 2
Cocklebur plant response rating (cocklebur; [4]): 0
Plant response rating, Cocklebur (cocklebur; [5]): 0
Plant response rating, Cocklebur (cocklebur; [6]): 0
Cocklebur plant response rating (cocklebur; [7]): 0
Cocklebur plant response rating (cocklebur; [8]): 2
Corn plant response rating (corn; [1]): 0
Corn plant response rating (corn; [2]): 0
Corn plant response rating (corn; [3]): 0
Corn plant response rating (corn; [4]): 0
Plant response rating, Corn (corn; [5]): 0
Plant response rating, Corn (corn; [6]): 0
Corn plant response rating (corn; [7]): 0
Corn plant response rating (corn; [8]): 1
Crabgrass plant response rating (crabgrass; [1]): 0
Crabgrass plant response rating (crabgrass; [2]): 0
Crabgrass plant response rating (crabgrass; [3]): 0
Crabgrass plant response rating (crabgrass; [4]): 0
Plant response rating, Crabgrass (crabgrass; [5]): 0
Plant response rating, Crabgrass (crabgrass; [6]): 0
Crabgrass plant response rating (crabgrass; [7]): 2
Crabgrass plant response rating (crabgrass; [8]): 2
Giant foxtail plant response rating (giant foxtail; [1]): 0
Giant foxtail plant response rating (giant foxtail; [2]): 0
Giant foxtail plant response rating (giant foxtail; [3]): 0
Giant foxtail plant response rating (giant foxtail; [4]): 0
Plant response rating, Giant foxtail (giant foxtail; [5]): 0
Plant response rating, Giant foxtail (giant foxtail; [6]): 0
Giant foxtail plant response rating (giant foxtail; [7]): 2
Giant foxtail plant response rating (giant foxtail; [8]): 2
Morningglory plant response rating (morningglory; [1]): 0
Morningglory plant response rating (morningglory; [2]): 0
Morningglory plant response rating (morningglory; [3]): 0
Morningglory plant response rating (morningglory; [4]): 0
Plant response rating, Morningglory (morningglory; [5]): 0
Plant response rating, Morningglory (morningglory; [6]): 0
Morningglory plant response rating (morningglory; [7]): 0
Morningglory plant response rating (morningglory; [8]): 2
Redroot pigweed plant response rating (pigweed; [1]): 0
Redroot pigweed plant response rating (pigweed; [2]): 0
Redroot pigweed plant response rating (pigweed; [4]): 0
Plant response rating, Redroot pigweed (pigweed; [5]): 0
Plant response rating, Redroot pigweed (pigweed; [6]): 0
Redroot pigweed plant response rating (pigweed; [7]): 0
Plant response rating, Redroot pigweed (pigweed; [9]): 0
Redroot pigweed plant response rating (pigweed; [8]): 5
Rape plant response rating (rape; [1]): 0
Rape plant response rating (rape; [2]): 0
Rape plant response rating (rape; [3]): 0
Rape plant response rating (rape; [4]): 0
Plant response rating, Rape (rape; [5]): 0
Plant response rating, Rape (rape; [6]): 0
Rape plant response rating (rape; [7]): 0
Rape plant response rating (rape; [8]): 0
Soybean plant response rating (soybean; [1]): 0
Soybean plant response rating (soybean; [2]): 0
Soybean plant response rating (soybean; [4]): 0
Plant response rating, Soybean (soybean; [5]): 0
Plant response rating, Soybean (soybean; [6]): 0
Soybean plant response rating (soybean; [7]): 0
Plant response rating, Soybean (soybean; [9]): 0
Soybean plant response rating (soybean; [8]): 1
Sugarbeets plant response rating (sugar beet; [1]): 0
Sugarbeets plant response rating (sugar beet; [2]): 0
Sugarbeets plant response rating (sugar beet; [4]): 0
Plant response rating, Sugarbeets (sugar beet; [5]): 0
Plant response rating, Sugarbeets (sugar beet; [6]): 0
Sugarbeets plant response rating (sugar beet; [7]): 0
Plant response rating, Sugarbeets (sugar beet; [9]): 0
Sugarbeets plant response rating (sugar beet; [8]): 6
Velvetleaf plant response rating (velvetleaf; [1]): 0
Velvetleaf plant response rating (velvetleaf; [2]): 0
Velvetleaf plant response rating (velvetleaf; [4]): 0
Plant response rating, Velvetleaf (velvetleaf; [5]): 0
Plant response rating, Velvetleaf (velvetleaf; [6]): 0
Velvetleaf plant response rating (velvetleaf; [7]): 0
Plant response rating, Velvetleaf (velvetleaf; [9]): 0
Velvetleaf plant response rating (velvetleaf; [8]): 3
Wheat plant response rating (wheat; [1]): 0
Wheat plant response rating (wheat; [2]): 0
Wheat plant response rating (wheat; [4]): 0
Plant response rating, Wheat (wheat; [5]): 0
Plant response rating, Wheat (wheat; [6]): 0
Wheat plant response rating (wheat; [7]): 0
Plant response rating, Wheat (wheat; [9]): 0
Wheat plant response rating (wheat; [8]): 0
Wild oats plant response rating (wild oat; [1]): 0
Wild oats plant response rating (wild oat; [2]): 0
Wild oats plant response rating (wild oat; [4]): 0
Plant response rating, Wild oats (wild oat; [5]): 0
Plant response rating, Wild oats (wild oat; [6]): 0
Wild oats plant response rating (wild oat; [7]): 0
Plant response rating, Wild oats (wild oat; [9]): 0
Wild oats plant response rating (wild oat; [8]): 0
Nutsedge plant response rating (purple nutsedge; [1]): 0
Nutsedge plant response rating (purple nutsedge; [2]): 0
Nutsedge plant response rating (purple nutsedge; [3]): 0
Nutsedge plant response rating (purple nutsedge; [4]): 0
Plant response rating, Nutsedge (purple nutsedge; [5]): 0
Plant response rating, Nutsedge (purple nutsedge; [6]): 0
Nutsedge plant response rating (purple nutsedge; [7]): 0
Nutsedge plant response rating (purple nutsedge; [8]): 0
Rice plant response rating (rice; [10]): 0
Rice plant response rating (rice; [1]): 0
Plant response rating, Rice (rice; Rate 250 g/ha, Postemergence (flood test), scale 0 to 10, 0 is no effect, 10 is complete control): 0
Rice plant response rating (rice; [11]): 0
Ducksalad plant response rating (duck salad; [10]): 0
Ducksalad plant response rating (duck salad; [1]): 0
Ducksalad plant response rating (duck salad; [11]): 0
Ducksalad plant response rating (duck salad; [12]): 0
Barnyardgrass plant response rating (bamyardgrass; [1]): 0
Barnyardgrass plant response rating (bamyardgrass; Rate 125 g/ha, Postemergence section (flood test species), scale 0 to 10, 0 no effect, 10 complete control): 0
Barnyardgrass plant response rating (bamyardgrass; [11]): 0
Barnyardgrass plant response rating (bamyardgrass; [12]): 0
